Data published in patent US20080031967A1, “Compositions, products and methods for controlling weight in a mammal” (priority 2005, published 2008).

Key:
[1] = test system: isolated rat adipocytes; conditions: dissolved oxygen monitor; cited from earlier work
[2] = test system: primary rat adipocytes; assay: thermogenesis assay: oxygen consumption by adipocytes (oxygen probe); format: cell-based; conditions: fatty acid oxidation inhibitors
Method: Thermogenesis was measured using an oxygen probe to monitor oxygen consumption by the adipocytes as they oxidize fatty acids. This assay was developed in primary rat adipocytes (isolated as above) using a YSI 5300 monitor equipped with oxygen-sensitive electrodes in an 8-chamber air tight apparatus. […] Since oxygen consumption can be induced by both the Kreb's cycle (glucose metabolism) and β-oxidation (fatty acid metabolism), fatty acid oxidation inhibitors were used to test whether the increase in oxygen consumption is indeed induced by fatty acid oxidation. Valproic acid inhibits the entry of fatty acid into the mitochondria and 4-pentenoic acid inhibits β-ketothiolase (the enzyme in the last step of β-oxidation). […] It has been discovered that the use of the above-listed thermogenic agents in accordance with the present invention results in the effective modulation of thermogenesis in mammals. By “effective,” it is meant that administration of the thermogenic agents of the present invention results in a 10 to 15% increase in thermogenic activity in the in vitro oxygen consumption assay. Without wishing to be bound by theory, it is believed that the thermogenic agents of the present invention function by increasing the rate at which fatty acids are transported into the mitochondria and oxidized in the cell.

[3] = test system: primary rat adipocytes; conditions: validation compound, stated as known; cited from earlier work

| Molecule | effect on oxygen consumption induced by norepinephrine [2] | other results |
| --- | --- | --- |
| leptin: adipocyte-derived hormone |  | effect on beta-oxidation in adipocytes [1]: stimulates beta-oxidation |
| CCCC(CCC)C(=O)O [Valproic acid] | inhibit oxygen consumption induced by norepinephrine |  |
| NC[C@H](O)c1ccc(O)c(O)c1 [norepinephrine] |  | effect on rate of fatty acid oxidation and oxygen consumption [3]: increase the rate of fatty acid oxidation and oxygen consumption |
| C=CCCC(=O)O [4-pentenoic acid] | inhibit oxygen consumption induced by norepinephrine |  |
